Reference: article PMC6152004 (Molecules : A Journal of Synthetic Chemistry and Natural …, 2017)
Read-outs that look alike come from different tables or passages of the source.

Assays:
BChE = details: read-out: BChE IC50; cited from earlier work
AChE = details: cited from earlier work; for IC50: read-out: AChE IC50
[1] = molecular target: T1, human blood acetylcholinesterase (AChE) (Homo sapiens, UniProt P22303); assay: AChE inhibition, modified Ellman's method, red blood cell lysate; assay type: biochemical
T1 construct: Red blood cell lysate was used as a source of AChE and human plasma as a source of BChE; from tissue; host or cells: human erythrocytes (lysate) from freshly drawn blood of healthy volunteers
T1 sequence (P22303 32-617 isoform P22303-2 limits assumed): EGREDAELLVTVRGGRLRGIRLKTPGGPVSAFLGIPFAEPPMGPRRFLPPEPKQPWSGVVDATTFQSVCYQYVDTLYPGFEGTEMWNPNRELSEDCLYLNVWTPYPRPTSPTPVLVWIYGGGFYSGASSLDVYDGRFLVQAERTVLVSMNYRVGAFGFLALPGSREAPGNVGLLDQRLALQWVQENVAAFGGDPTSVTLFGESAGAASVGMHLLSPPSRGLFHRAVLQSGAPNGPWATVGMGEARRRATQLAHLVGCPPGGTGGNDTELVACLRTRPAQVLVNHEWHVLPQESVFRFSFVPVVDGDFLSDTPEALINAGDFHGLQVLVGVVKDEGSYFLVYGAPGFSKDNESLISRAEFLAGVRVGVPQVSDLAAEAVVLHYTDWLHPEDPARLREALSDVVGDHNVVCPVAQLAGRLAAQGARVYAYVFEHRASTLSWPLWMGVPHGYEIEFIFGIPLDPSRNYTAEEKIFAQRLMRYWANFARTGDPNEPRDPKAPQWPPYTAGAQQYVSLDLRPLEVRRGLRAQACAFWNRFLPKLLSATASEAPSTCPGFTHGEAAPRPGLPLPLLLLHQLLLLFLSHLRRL

[2] = molecular target: human plasma butyrylcholinesterase (BChE) (Homo sapiens, UniProt P06276); assay: biochemical
Chain of human plasma butyrylcholinesterase (BChE) (P06276 29-602): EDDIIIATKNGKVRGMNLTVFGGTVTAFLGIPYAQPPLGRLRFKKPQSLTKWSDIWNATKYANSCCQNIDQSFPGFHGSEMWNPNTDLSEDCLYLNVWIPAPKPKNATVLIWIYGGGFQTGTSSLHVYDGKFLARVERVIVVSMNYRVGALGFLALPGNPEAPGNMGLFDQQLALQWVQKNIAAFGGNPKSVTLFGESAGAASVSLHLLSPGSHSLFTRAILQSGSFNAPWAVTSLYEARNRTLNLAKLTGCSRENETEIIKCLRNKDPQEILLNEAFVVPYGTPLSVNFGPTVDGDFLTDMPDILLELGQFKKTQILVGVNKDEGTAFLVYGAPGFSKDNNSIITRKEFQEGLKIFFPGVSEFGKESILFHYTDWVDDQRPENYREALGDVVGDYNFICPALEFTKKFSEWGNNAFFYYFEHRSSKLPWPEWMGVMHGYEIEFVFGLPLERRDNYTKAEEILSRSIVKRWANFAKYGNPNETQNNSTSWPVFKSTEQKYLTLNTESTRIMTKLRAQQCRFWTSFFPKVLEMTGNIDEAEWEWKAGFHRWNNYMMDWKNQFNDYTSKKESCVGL

[3] = molecular target: T2, recombinant prolyl oligopeptidase (POP) (Homo sapiens, UniProt P48147); assay: Prolyl oligopeptidase assay, substrate Z-Gly-Pro-p-nitroanilide; assay type: biochemical
T2 construct: purchased Sigma-Aldrich (Prague, Czech Republic)
T2 sequence (P48147 1-710): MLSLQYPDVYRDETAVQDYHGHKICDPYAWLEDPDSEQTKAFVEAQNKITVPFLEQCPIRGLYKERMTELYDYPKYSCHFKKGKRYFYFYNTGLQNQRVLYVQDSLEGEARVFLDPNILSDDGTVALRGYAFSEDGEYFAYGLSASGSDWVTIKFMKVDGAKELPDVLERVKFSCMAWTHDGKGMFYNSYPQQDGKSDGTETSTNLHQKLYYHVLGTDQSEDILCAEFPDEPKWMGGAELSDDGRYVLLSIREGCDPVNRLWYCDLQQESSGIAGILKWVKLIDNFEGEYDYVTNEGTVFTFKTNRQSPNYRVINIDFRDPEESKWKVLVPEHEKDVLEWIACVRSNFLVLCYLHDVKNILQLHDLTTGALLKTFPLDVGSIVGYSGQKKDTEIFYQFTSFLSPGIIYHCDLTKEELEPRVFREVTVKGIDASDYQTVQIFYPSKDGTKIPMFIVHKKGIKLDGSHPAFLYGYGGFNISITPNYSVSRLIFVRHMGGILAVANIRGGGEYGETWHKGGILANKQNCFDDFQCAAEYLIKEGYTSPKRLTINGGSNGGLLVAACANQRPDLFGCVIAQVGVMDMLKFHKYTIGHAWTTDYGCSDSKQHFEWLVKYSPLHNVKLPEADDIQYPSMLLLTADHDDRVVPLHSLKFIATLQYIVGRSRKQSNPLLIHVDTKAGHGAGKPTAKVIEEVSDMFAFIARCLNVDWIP

[4] = molecular target: T2, recombinant prolyl oligopeptidase (POP); details: tested previously; cited from earlier work
[5] = isolated from Fumaria vaillantii, review of Sener and Orhan

## COc1cc2c(cc1O)C(Cc1ccc(O)cc1)N(C)CC2 (single isomer, unassigned; (+)) [(+)-N-methylcoclaurine]
BChE
  IC50: 15 ± 1.4 µM
AChE
  IC50: > 220 µM

## COc1ccc(CC2c3cc4c(cc3CCN2C)OCO4)c(C=O)c1OC (single isomer, unassigned; (+)) [canadaline, (+)-canadaline]
AChE
  IC50: 20.1 µM

## COc1ccc(C[C@H]2c3cc(O)c(OC)cc3CCN2C)cc1O [(+)-reticuline]
BChE
  IC50: 33.6 ± 3 µM
AChE
  IC50: > 220 µM

## COc1cc2c(cc1O)[C@@H]1Cc3cc4c(cc3[C@H](C2)N1C)OCO4 [(–)-caryachine]
AChE
  IC50: 19.6 ± 0.4 µM

## COc1cc2c(cc1OC)[C@@H]1Cc3cc(OC)c(OC)cc3[C@H](C2)N1C [Compound 3, (–)-argemonine]
[1]
  IC50: > 1000 µM
[2]
  IC50: 885 ± 119 µM
[3]
  IC50: 337 ± 83.1 µM

## COc1ccc2c(c1OC)CN(C)CCc1cc3c(cc1C(=O)C2)OCO3 [Compound 4, allocryptopine]
AChE; [5]
  IC50: 1.3 µM
[1]
  IC50: 250 ± 25 µM
[2]
  IC50: 530 ± 28.2 µM
[3]
  IC50: > 1000 µM

## COc1cc2c(cc1OC)[C@@H]1Cc3ccc(OC)c(O)c3[C@H](C2)N1C [Compound 5, (–)-platycerine]
[4]
  IC50: 687 ± 74 µM
[1]
  IC50: 224 ± 19.6 µM
[2]
  IC50: > 1000 µM

## COc1cc2c(cc1O)[C@@H]1Cc3ccc(OC)c(O)c3[C@H](C2)N1C [Compound 6, (–)-munitagine]
[1]
  IC50: 62.3 ± 5.8 µM
[2]
  IC50: 837 ± 23 µM
[3]
  IC50: 277 ± 31.3 µM

## COc1cc2c(cc1O)[C@@H]1Cc3cc(OC)c(OC)cc3[C@H](C2)N1C [Compound 7, (–)-norargemonine]
[1]
  IC50: 205 ± 11.7 µM
[2]
  IC50: > 1000 µM

## (–)-californidine
AChE
  IC50: 36.7 ± 0.9 µM

## protopine [Compound 2]
AChE
  Type of AChE inhibition: dose-dependent, specific, reversible and competitive AChE inhibitor
AChE; [5]
  IC50: 1.8 µM
